Here are results for 24 molecules from US20250101041A1, “POSITIVE ALLOSTERIC MODULATORS OF THE MUSCARINIC ACETYLCHOLINE RECEPTOR M4” (Vanderbilt University, priority 2022, published 2025).

For the assay, the target named is T1, human mAChR M4 (Homo sapiens, UniProt P08173).
T1 construct: expressed in transfected cells; host or cells: CHO-K1 (American Type Culture Collection), stably expressing hM4 and Gqi5
T1 sequence (P08173 1-479): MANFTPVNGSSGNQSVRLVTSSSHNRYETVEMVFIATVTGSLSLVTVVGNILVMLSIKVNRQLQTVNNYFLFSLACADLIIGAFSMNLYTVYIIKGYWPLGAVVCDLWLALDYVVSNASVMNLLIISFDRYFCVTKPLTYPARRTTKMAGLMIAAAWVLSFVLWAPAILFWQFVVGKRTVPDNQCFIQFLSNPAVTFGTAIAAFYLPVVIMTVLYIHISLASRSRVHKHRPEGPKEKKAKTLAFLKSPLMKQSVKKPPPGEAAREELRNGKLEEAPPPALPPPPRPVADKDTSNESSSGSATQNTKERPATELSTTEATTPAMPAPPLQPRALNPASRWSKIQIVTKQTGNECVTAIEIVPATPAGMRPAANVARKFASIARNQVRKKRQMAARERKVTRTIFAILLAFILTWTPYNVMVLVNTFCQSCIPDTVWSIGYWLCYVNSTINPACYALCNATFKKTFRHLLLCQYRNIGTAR
The experiment in a line: mAChR M4 cell-based functional assay: calcium mobilization (Fluo-4, FDSS), potentiation of EC20 acetylcholine response in hM4-Gqi5 CHO-K1 cells. To be noted: human M4; for Emax at 30 µM: CHO-K1, % ACh maximum at 30 μM; for EC50: potentiation of EC20 acetylcholine response, calcium mobilization. A digest of the protocol:
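Readout is the fluorescence-ratio rise at 1 Hz on FDSS, with PAM activity taken as concentration-dependent enhancement of the EC20 acetylcholine response, fitted four-parameter for EC50/Emax. hM4-Gqi5 CHO-K1 cells carried Fluo-4 AM dye; test compounds (11 points, 1:3) preceded EC20 acetylcholine additions at 144 s and 230 s.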

A word on the Emax: it is the greatest response seen or fitted, relative to the assay's reference. The term EC50 denotes the concentration that produces a half-maximal response.

Consider `Cc1cc2nccc(=O)n2nc1N1CCc2ncc(-c3ccccn3)cc2C1` [Compound 1-349, 8-methyl-7-(3-(pyridin-2-yl)-7,8-dihydro-1,6-naphthyridin-6(5H)-yl)-4H-pyrimido[1,2-b] pyridazin-4-one], for which the Emax at 30 µM stood at 69% and the EC50 was found to be 1140 nM.
For `Cc1cc(F)cnc1-c1cnc2c(c1)CN(c1nn3c(=O)ccnc3cc1C)CC2` [Compound 1-350, 7-(3-(5-fluoro-3-methylpyridin-2-yl)-7,8-dihydro-1,6-naphthyridin-6(5H)-yl)-8-methyl-4H-pyrimido[1,2-b]pyridazin-4-one], in that order: 72% and 3450 nM.
Consider `Cc1ccc(-c2cnc3c(c2)CN(c2nn4c(=O)ccnc4cc2C)CC3)nc1` [Compound 1-351, 8-methyl-7-(3-(5-methylpyridin-2-yl)-7,8-dihydro-1,6-naphthyridin-6(5H)-yl)-4H-pyrimido[1,2-b]pyridazin-4-one], for which the Emax at 30 µM came out at 55% and the EC50 came to 426 nM.
For `Cc1cc2nccc(=O)n2nc1N1CCc2ncc(-c3cccnn3)cc2C1` [Compound 1-352, 8-methyl-7-(3-(pyridazin-3-yl)-7,8-dihydro-1,6-naphthyridin-6(5H)-yl)-4H-pyrimido[1,2-b]pyridazin-4-one], in that order: 59% and 3310 nM.
In the same order, the values of `Cc1ccc(-c2cnc3c(c2)CN(c2nn4c(=O)ccnc4cc2C)CC3)nn1` [Compound 1-353, 8-methyl-7-(3-(6-methylpyridazin-3-yl)-7,8-dihydro-1,6-naphthyridin-6(5H)-yl)-4H-pyrimido[1,2-b] pyridazin-4-one] are 55% and 1270 nM.
In the same order, the values of `Cc1cc2nccc(=O)n2nc1N1CCc2ncc(-c3cc(F)ccn3)cc2C1` [Compound 1-354, 7-(3-(4-fluoropyridin-2-yl)-7,8-dihydro-1,6-naphthyridin-6(5H)-yl)-8-methyl-4H-pyrimido [1,2-b]pyridazin-4-one] are 63% and 2540 nM.
Take `Cc1cc(C#N)ncc1-c1cnc2c(c1)CN(c1nn3c(=O)ccnc3cc1C)CC2` [Compound 1-355, 4-methyl-5-(6-(8-methyl-4-oxo-4H-pyrimido[1,2-b]pyridazin-7-yl)-5,6,7,8-tetrahydro-1,6-naphthyridin-3-yl)picolinonitrile]: the Emax at 30 µM was found to be 78% and the EC50 came out at 1520 nM.
Take `Cc1ccnnc1-c1cnc2c(c1)CN(c1nn3c(=O)ccnc3cc1C)CC2` [Compound 1-356, 8-methyl-7-(3-(4-methylpyridazin-3-yl)-7,8-dihydro-1,6-naphthyridin-6(5H)-yl)-4H-pyrimido[1,2-b]pyridazin-4-one]: the maximal effect (Emax) at 30 µM was 70%.
For `COCc1cc(=O)n2nc(N3CCc4ncc(-c5cnc(Cl)cc5C)cc4C3)c(C)cc2n1` [Compound 1-357, 7-(3-(6-chloro-4-methylpyridin-3-yl)-7,8-dihydro-1,6-naphthyridin-6(5H)-yl)-2-(methoxymethyl)-8-methyl-4H-pyrimido[1,2-b]pyridazin-4-one], the Emax at 30 µM stood at 86% and the EC50 is 383 nM.
Turning to `COCc1cc(=O)n2nc(N3CCc4ncc(-c5cccc(F)c5)cc4C3)c(C)cc2n1` [Compound 1-358, 7-(3-(3-fluorophenyl)-7,8-dihydro-1,6-naphthyridin-6(5H)-yl)-2-(methoxymethyl)-8-methyl-4H-pyrimido[1,2-b] pyridazin-4-one], the Emax at 30 µM worked out at 83% and the EC50 was determined as 337 nM.
In the same order, the values of `COCc1cc(=O)n2nc(N3CCc4ncc(-c5cnccc5C)cc4C3)c(C)cc2n1` [Compound 1-359, 2-(methoxymethyl)-8-methyl-7-(3-(4-methylpyridin-3-yl)-7,8-dihydro-1,6-naphthyridin-6(5H)-yl)-4H-pyrimido[1,2-b] pyridazin-4-one] are 82% and 136 nM.
In the same order, the values of `COCc1cc(=O)n2nc(N3CCc4ncc(-c5ccccc5F)cc4C3)c(C)cc2n1` [Compound 1-360, 7-(3-(2-fluorophenyl)-7,8-dihydro-1,6-naphthyridin-6(5H)-yl)-2-(methoxymethyl)-8-methyl-4H-pyrimido[1,2-b] pyridazin-4-one] are 83% and 245 nM.
For `COCc1cc(=O)n2nc(N3CCc4ncc(-c5ccnc(C)c5)cc4C3)c(C)cc2n1` [Compound 1-361, 2-(methoxymethyl)-8-methyl-7-(3-(2-methylpyridin-4-yl)-7,8-dihydro-1,6-naphthyridin-6(5H)-yl)-4H-pyrimido[1,2-b] pyridazin-4-one], in that order: 82% and 351 nM.
For `COCc1cc(=O)n2nc(N3CCc4ncc(-c5ccncc5)cc4C3)c(C)cc2n1` [Compound 1-362, 2-(methoxymethyl)-8-methyl-7-(3-(pyridin-4-yl)-7,8-dihydro-1,6-naphthyridin-6(5H)-yl)-4H-pyrimido[1,2-b] pyridazin-4-one], the Emax at 30 µM was 78% and the EC50 stood at 337 nM.
`COCc1cc(=O)n2nc(N3CCc4ncc(-c5ccccc5OC(F)(F)F)cc4C3)c(C)cc2n1` [Compound 1-363, 2-(methoxymethyl)-8-methyl-7-(3-(2-(trifluoromethoxy)phenyl)-7,8-dihydro-1,6-naphthyridin-6(5H)-yl)-4H-pyrimido[1,2-b] pyridazin-4-one]: the Emax at 30 µM was 65% and the EC50 amounted to 3060 nM.
For `COCc1cc(=O)n2nc(N3CCc4ncc(-c5cnn(C6CC6)c5)cc4C3)c(C)cc2n1` [Compound 1-364, 7-(3-(1-cyclopropyl-1H-pyrazol-4-yl)-7,8-dihydro-1,6-naphthyridin-6(5H)-yl)-2-(methoxymethyl)-8-methyl-4H-pyrimido[1,2-b]pyridazin-4-one], in that order: 68% and 298 nM.
In the same order, the values of `COCc1cc(=O)n2nc(N3CCc4ncc(-c5cccnc5)cc4C3)c(C)cc2n1` [Compound 1-365, 2-(methoxymethyl)-8-methyl-7-(3-(pyridin-3-yl)-7,8-dihydro-1,6-naphthyridin-6(5H)-yl)-4H-pyrimido[1,2-b] pyridazin-4-one] are 69% and 325 nM.
In the case of `COCc1cc(=O)n2nc(N3CCc4ncc(-c5cnn(C)c5C)cc4C3)c(C)cc2n1` [Compound 1-366, 7-(3-(1,5-dimethyl-1H-pyrazol-4-yl)-7,8-dihydro-1,6-naphthyridin-6(5H)-yl)-2-(methoxymethyl)-8-methyl-4H-pyrimido[1,2-b]pyridazin-4-one], the Emax at 30 µM turned out to be 72% and the EC50 came to 284 nM.
In the same order, the values of `COCc1cc(=O)n2nc(N3CCc4ncc(-c5cccs5)cc4C3)c(C)cc2n1` [Compound 1-367, 2-(methoxymethyl)-8-methyl-7-(3-(thiophen-2-yl)-7,8-dihydro-1,6-naphthyridin-6(5H)-yl)-4H-pyrimido[1,2-b] pyridazin-4-one] are 71% and 141 nM.
With `COCc1cc(=O)n2nc(N3CCc4ncc(-c5sccc5OC)cc4C3)c(C)cc2n1` [Compound 1-368, 2-(methoxymethyl)-7-(3-(3-methoxythiophen-2-yl)-7,8-dihydro-1,6-naphthyridin-6(5H)-yl)-8-methyl-4H-pyrimido[1,2-b]pyridazin-4-one], the Emax at 30 µM was 95% and the EC50 worked out at 293 nM.
For the molecule `COCc1cc(=O)n2nc(N3CCc4ncc(-c5ccc(CO)s5)cc4C3)c(C)cc2n1` [Compound 1-369, 7-(3-(5-(hydroxymethyl)thiophen-2-yl)-7,8-dihydro-1,6-naphthyridin-6(5H)-yl)-2-(methoxymethyl)-8-methyl-4H-pyrimido[1,2-b] pyridazin-4-one], the Emax at 30 µM was found to be 99% and the EC50 was determined as 46 nM.
In the same order, the values of `COCc1cc(=O)n2nc(N3CCc4ncc(-c5ccsc5)cc4C3)c(C)cc2n1` [Compound 1-370, 2-(methoxymethyl)-8-methyl-7-(3-(thiophen-3-yl)-7,8-dihydro-1,6-naphthyridin-6(5H)-yl)-4H-pyrimido[1,2-b]pyridazin-4-one] are 94% and 153 nM.
In the same order, the values of `COCc1cc(=O)n2nc(N3CCc4ncc(-c5ccco5)cc4C3)c(C)cc2n1` [Compound 1-371, 7-(3-(furan-2-yl)-7,8-dihydro-1,6-naphthyridin-6(5H)-yl)-2-(methoxymethyl)-8-methyl-4H-pyrimido[1,2-b]pyridazin-4-one] are 92% and 140 nM.
In the same order, the values of `COCc1cc(=O)n2nc(N3CCc4ncc(-c5ccc(C)o5)cc4C3)c(C)cc2n1` [Compound 1-372, 2-(methoxymethyl)-8-methyl-7-(3-(5-methylfuran-2-yl)-7,8-dihydro-1,6-naphthyridin-6(5H)-yl)-4H-pyrimido[1,2-b] pyridazin-4-one] are 65% and 298 nM.
